Test results: patent US10328128B2, “Treatment of infection by human enterovirus D68” (priority 2014, dated 2019)
Like-named read-outs stand apart in the source and are kept apart here.

B1: DAS181: fusion protein of the catalytic domain of A. viscosus sialidase and a human amphiregulin GAG-binding anchoring domain (SEQ ID NOs: 15 and 16) (protein)
chain: MGDHPQATPAPAPDASTELPASMSQAQHLAANTATDNYRIPAITTAPNGDLLISYDERPKDNGNGGSDAPNPNHIVQRRSTDGGKTWSAPTYIHQGTETGKKVGYSDPSYVVDHQTGTIFNFHVKSYDQGWGGSRGGTDPENRGIIQAEVSTSTDNGWTWTHRTITADITKDKPWTARFAASGQGIQIQHGPHAGRLVQQYTIRTAGGAVQAVSVYSDDHGKTWQAGTPIGTGMDENKVVELSDGSLMLNSRASDGSGFRKVAHSTDGGQTWSEPVSDKNLPDSVDNAQIIRAFPNAAPDDPRAKVLLLSHSPNPRPWSRDRGTISMSCDDGASWTTSKVFHEPFVGYTTIAVQSDGSIGLLSEDAHNGADYGGIWYRNFTMNWLGEQCGQKPAKRKKKGGKNGKNRRNRKKKNPGDHPQATPAPAPDASTELPASMSQAQHLAANTATDNYRIPAITTAPNGDLLISYDERPKDNGNGGSDAPNPNHIVQRRSTDGGKTWSAPTYIHQGTETGKKVGYSDPSYVVDHQTGTIFNFHVKSYDQGWGGSRGGTDPENRGIIQAEVSTSTDNGWTWTHRTITADITKDKPWTARFAASGQGIQIQHGPHAGRLVQQYTIRTAGGAVQAVSVYSDDHGKTWQAGTPIGTGMDENKVVELSDGSLMLNSRASDGSGFRKVAHSTDGGQTWSEPVSDKNLPDSVDNAQIIRAFPNAAPDDPRAKVLLLSHSPNPRPWSRDRGTISMSCDDGASWTTSKVFHEPFVGYTTIAVQSDGSIGLLSEDAHNGADYGGIWYRNFTMNWLGEQCGQKPAKRKKKGGKNGKNRRNRKKKNP

Assays:
[1] = tested on: EV-D68 strain USA-MO/18947; assay: CPE inhibition assay in RD cells; assay type: cell-based, Human enterovirus D68; conditions: read-out: Mean EC50 ± SD
[2] = tested on: EV-D68 strain USA-MO/18949; assay: CPE inhibition assay in RD cells; assay type: cell-based, Human enterovirus D68; conditions: read-out: Mean EC50 ± SD
[3] = tested on: EV-D68 strain USA-IL/18956; assay: CPE inhibition assay in RD cells; assay type: cell-based, Human enterovirus D68; conditions: read-out: Mean EC50 ± SD
[4] = tested on: EV-D68 1962 prototype strain (Fermon); assay: CPE inhibition assay in RD cells; assay type: cell-based, Human enterovirus D68; conditions: read-out: Mean EC50 ± SD
four EV-D68 strains = assay: microbe, parasite or virus in culture; assay type: cell-based, Human enterovirus D68; conditions: for EC50: read-out: EC50 values, range over all four EV-D68 strains; for activity against EV-D68 strains in words: highest concentration tested 10 μM
[5] = typical fluoxetine dosing; cited from earlier work
EV-D68 Fermon strain = assay: CPE inhibition assay over a range of virus doses; assay type: cell-based, Human enterovirus D68; conditions: Enterovirus D, EVD68; Fermon strain, 100-fold virus dose range, five half-log dilutions; upper end printed as >10 μM; data not shown; read-out: EC50 values over a range of virus doses
Method: Antiviral activity was assessed in a homogeneous cell-based assay that measured inhibition of viral cytopathic effect in human rhabdomyosarcoma cells (RD; ATCC CCL-136). The viruses included three representative EV-D68 strains from the 2014 outbreak (USA-MO/18947, USA-MO/18949, USA-IL/18956) (Brown et al. 2014. Seven Strains of Enterovirus D68 Detected in the United States during the 2014 Severe Respiratory Disease Outbreak. Genome Announc 2:e01201-01214), as well as the 1962 prototype strain (Fermon) (Schieble et al. 1967. A probable new human picornavirus associated with respiratory diseases. Am J Epidemiol 85:297-310). For the CPE inhibition assay, half-log10 dilutions of drug compound (10 μM to 0.001 μM) were combined with 100 CCID50 (50% cell culture infectious dose) of virus and added to monolayers of RD cells (5000 cells per well) in 384-well, white, flat-bottom microplates. Plates were incubated at 33° C. and 5% CO2 for five days, and cell viability was assessed using ATPLite® (Perkin Elmer, Waltham, Mass.) by adding 15 μL of cell lysis buffer and then 15 μL of substrate solution, following the manufacturer's recommendations.
In both studies, the methods were somewhat different from our approach. […] For the other compounds tested, similar EC50 values were observed across this same dose range. […]

EV-D68 strain Fermon = assay: DAS181 specific anti-viral assay, time of addition; assay type: cell-based, Human enterovirus D68; conditions: read-out: DAS181 Mean EC50 ± SD
Method: (§1) As shown in the Table 2, DAS181 was tested to assess antiviral activity of the compound using a cell-based assay, and using enterovirus D68 strains (EV-D68). In this assay, using four specific EV-D68 strains, the compound was added at different time-points to each of the strains. The three time conditions tested were: (i) DAS181 preincubated with cells for 24 h before virus infection; (ii) DAS181 added simultaneously with virus; and (iii) DAS181 added 4 h post-infection. Fermon, an original prototypic strain, was used as control.

[6] = tested on: EV-D68 strain USA-IL/238139; assay: DAS181 specific anti-viral assay, time of addition; assay type: cell-based, Human enterovirus D68; conditions: read-out: DAS181 Mean EC50 ± SD
Method: as §1

[7] = tested on: EV-D68 strain USA-MO/238102; assay: DAS181 specific anti-viral assay, time of addition; assay type: cell-based, Human enterovirus D68; conditions: read-out: DAS181 Mean EC50 ± SD
Method: as §1

[8] = tested on: EV-D68 strain USA-MO/238121; assay: DAS181 specific anti-viral assay, time of addition; assay type: cell-based, Human enterovirus D68; conditions: read-out: DAS181 Mean EC50 ± SD
Method: as §1

[9] = tested on: enterovirus D68 strains (EV-D68); assay: DAS181 specific anti-viral assay, text summary over all strains and conditions; assay type: cell-based, Human enterovirus D68; conditions: all conditions and all enterovirus strains tested
Method: as §1

[10] = Sialidase activity with fluorogenic substrate 4-MU-NANA; assay type: biochemical; conditions: 37° C.
Method: The sialidase activity of DAS181 was measured using the fluorogenic substrate 4-methylumbelliferyl-N-acetyl-α-D-neuraminic acid (4-MU-NANA; Sigma). One unit of sialidase is defined as the amount of enzyme that releases 10 nmol of MU from 4-MU-NANA in 10 minutes at 37° C. (50 mM CH3COOH—NaOH buffer, pH 5.5) in a reaction that contains 20 nmol of 4-MU-NANA in a 0.2 ml volume (Potier et al., Anal. Biochem., 94:287-296, 1979). The specific activity of DAS181 was determined to be 1,300 U/mg protein (0.77 μg DAS181 protein per unit of activity).

[11] = Enterovirus D, EVD68, RD, 120 h
[12] = Enterovirus D, EVD68, 120 h, RD cells, 100 CCID50 virus, 33° C., five days, strain USA-MO/18947
[13] = Enterovirus D, EVD68, 120 h, RD cells, 100 CCID50 virus, 33° C., five days, strain USA-MO/18949
[14] = Enterovirus D, EVD68, 120 h, RD cells, 100 CCID50 virus, 33° C., five days, strain USA-IL/18956
[15] = Enterovirus D, EVD68, 120 h, RD cells, 100 CCID50 virus, 33° C., five days, strain Fermon
[16] = RD cells, 100 CCID50 virus, 33° C., five days, strain USA-MO/18947
[17] = RD cells, 100 CCID50 virus, 33° C., five days, strain USA-MO/18949
[18] = RD cells, 100 CCID50 virus, 33° C., five days, strain USA-IL/18956
[19] = RD cells, 100 CCID50 virus, 33° C., five days, strain Fermon
[20] = 24 hr preincubation before infection
[21] = Drug addition 4 hr after infection
[22] = No preincubation (added simultaneously with virus)

Row | Molecule | EC50 [1, 11] [nM] | EC50 [2, 11] [nM] | EC50 [3, 11] [nM] | EC50 [4, 11] [nM] | EC50 [1, 12] [nM] | EC50 [2, 13] [nM] | EC50 [3, 14] [nM] | EC50 [4, 15] [nM] | further results
1 | CCOC(=O)c1c(CSc2ccccc2)n(C)c2cc(Br)c(O)c(CN(C)C)c12 [Arbidol] | > 10000 | > 10000 | > 10000 | > 10000 |  |  |  |  | 
2 | COc1ccc(CC(C)NCC(O)c2ccc(O)c(NC=O)c2)cc1 (centres unmarked) [Formoterol furmarate] | > 10000 | > 10000 | > 10000 | > 10000 |  |  |  |  | 
3 | CCOC(=O)/C=C/[C@H](C[C@@H]1CCNC1=O)NC(=O)[C@@H](CC(=O)[C@@H](NC(=O)c1cc(C)on1)C(C)C)Cc1ccc(F)cc1 [Rupintrivir, rupintrivir] | 4.6 ± 1.6 | 1.5 ± 3 | 3.7 ± 7 | 2 ± 0.5 |  |  |  |  | EC50 (four EV-D68 strains; Enterovirus D, EVD68, RD): 1.5 to 5.1 nM
4 | CCOC(=O)C1=C[C@@H](OC(CC)CC)[C@H](NC(C)=O)[C@@H](N)C1 [Oseltamivir] | > 10000 | > 10000 | > 10000 | > 10000 |  |  |  |  | 
5 | CNCCC(Oc1ccc(C(F)(F)F)cc1)c1ccccc1 (centres unmarked) [Fluoxetine, fluoxetine] |  |  |  |  |  |  |  |  | activity against EV-D68 strains in words (four EV-D68 strains; RD cells): significant activity; maximal plasma levels [5]: < 200 nM
6 | C#CC[C@@H](C(=O)N[C@H](/C=C/C(=O)OCC)C[C@@H]1CCNC1=O)n1cccc(NC(=O)c2cc(C)on2)c1=O [V-7404] |  |  |  |  | 26 ± 4 | 27 ± 8 | 24 ± 7 | 3.5 ± 0.6 | EC50 (four EV-D68 strains; Enterovirus D, EVD68, RD): 1.5 to 5.1 nM
7 | OC(c1cc(C(F)(F)F)nc2c(C(F)(F)F)cccc12)C1CCCCN1 (centres unmarked) [Mefloquine, mefloquine] |  |  |  |  | > 10000 | > 10000 | > 10000 | > 10000 | 
8 | NC12CC3CC(CC(C3)C1)C2 [Amantidine] | > 10000 | > 10000 | > 10000 | > 10000 |  |  |  |  | 
9 | NC(=O)c1nc(F)c[nH]c1=O [Favipiravir, favipiravir] |  |  |  |  | > 10000 | > 10000 | > 10000 | > 10000 | 
10 | CC(=O)Oc1ccccc1C(=O)Nc1ncc([N+](=O)[O-])s1 [Nitazoxanide, nitazoxanide] |  |  |  |  | > 10000 | > 10000 | > 10000 | > 10000 | 
11 | CCC(C)n1ncn(-c2ccc(N3CCN(c4ccc(OCC5COC(Cn6cncn6)(c6ccc(Cl)cc6Cl)O5)cc4)CC3)cc2)c1=O (centres unmarked) [Itraconazole, itraconazole] |  |  |  |  | > 10000 | > 10000 | > 10000 | > 10000 | activity against EV-D68 strains in words (four EV-D68 strains; RD cells): failed to inhibit; EC50 (EV-D68 Fermon strain): 290 to 10000 nM
12 | COc1ccc(OCc2ccc(COc3c(Cl)cccc3Cl)cc2)c(Cl)c1 [Pocapavir, pocapavir] |  |  |  |  |  |  |  |  | EC50 [1, 16]: > 10000 nM; EC50 [2, 17]: > 10000 nM; EC50 [3, 18]: > 10000 nM; EC50 [4, 19]: > 10000 nM; activity against EV-D68 strains in words (four EV-D68 strains; RD cells): inactive
13 | B1 |  |  |  |  |  |  |  |  | EC50 [1, 16]: 3.6 ± 1.5 nM; EC50 [2, 17]: 2.6 ± 1.2 nM; EC50 [3, 18]: 4 ± 1.6 nM; EC50 [4, 19]: 1.2 ± 0.9 nM; EC50 (four EV-D68 strains; RD cells, all four EV-D68 strains): 1.2 to 4 nM; EC50 (EV-D68 strain Fermon; [20]): 1 ± 0.1 nM; EC50 (EV-D68 strain Fermon; [21]): 3.6 ± 1.5 nM; EC50 (EV-D68 strain Fermon; [22]): 1.2 ± 0.9 nM; EC50 [6, 20]: 3.2 ± 1 nM; EC50 [6, 21]: 4 ± 1.2 nM; EC50 [6, 22]: 4 ± 1.6 nM; EC50 [7, 20]: 2 ± 0.1 nM; EC50 [7, 21]: 4.3 ± 0.4 nM; EC50 [7, 22]: 3.6 ± 1.5 nM; EC50 [8, 20]: 2.7 ± 0.4 nM; EC50 [8, 21]: 3.4 ± 1 nM; EC50 [8, 22]: 2.6 ± 1.2 nM; potency in words [9]: low micromolar potency; DAS181 protein per unit of activity ([10]; pH 5.5): 0.77 µg; specific activity ([10]; pH 5.5, one unit releases 10 nmol MU in 10 minutes): 1,300 U/mg protein
